Laboratory results published in ChEMBL document CHEMBL2074306, “Transport of bile acids in multidrug-resistance-protein 3-overexpressing cells co-transfected with the ileal Na+-dependent bile-acid transporter” (Biochem J, 2003).
Values belong to the compound of their own block, whether it stands above or below them.

How the values were obtained:
Assay type in all cases: functional, cell membranes
Set-up in all cases: scale not given: the % may be the effect or the level left
[1] = molecular target: Multidrug resistance associated protein (Homo sapiens) (UniProt Q96QA9); test: TP_TRANSPORTER: inhibition of Etoposide glucuronide uptake (Etoposide glucuronide: 0.094 uM, MK571: 20 uM) by MK-571 at a concentration of 20uM in membrane vesicle from MRP3-expressing Sf9 cells
[2] = molecular target: Multidrug resistance associated protein (Homo sapiens) (UniProt Q96QA9); test: TP_TRANSPORTER: inhibition of Etoposide glucuronide uptake (Etoposide glucuronide: 0.094 uM, MK-571: 20.0 uM) in membrane vesicles from MRP3-expressing Sf9 cells; conditions: Membrane vesicle
[3] = molecular target: Multidrug resistance associated protein (Homo sapiens) (UniProt Q96QA9); test: TP_TRANSPORTER: inhibition of Etoposide glucuronide uptake (Etoposide glucuronide: 0.094 uM, LC-S: 20.0 uM) in membrane vesicles from MRP3-expressing Sf9 cells; conditions: Membrane vesicle
[4] = molecular target: Multidrug resistance associated protein (Homo sapiens) (UniProt Q96QA9); test: TP_TRANSPORTER: inhibition of Etoposide glucuronide uptake (Etoposide glucuronide: 0.094 uM, Lithocholic acid-sulfate: 20 uM) by Lithocholate-3-sulfate at a concentration of 20uM in membrane vesicle from MRP3-expressing Sf9 cells
[5] = molecular target: Multidrug resistance associated protein (Homo sapiens) (UniProt Q96QA9); test: TP_TRANSPORTER: inhibition of Etoposide glucuronide uptake (Etoposide glucuronide: 0.094 uM, TCDC: 500 uM) by Taurochenodeoxycholate at a concentration of 500uM in membrane vesicle from MRP3-expressing Sf9 cells
[6] = molecular target: Multidrug resistance associated protein (Homo sapiens) (UniProt Q96QA9); test: TP_TRANSPORTER: inhibition of Etoposide glucuronide uptake (Etoposide glucuronide: 0.094 uM, TCDC: 500.0 uM) in membrane vesicles from MRP3-expressing Sf9 cells; conditions: Membrane vesicle
[7] = molecular target: Multidrug resistance associated protein (Homo sapiens) (UniProt Q96QA9); test: TP_TRANSPORTER: inhibition of Etoposide glucuronide uptake (Etoposide glucuronide: 0.094 uM, […] uM) by Glycolithocholate-3-sulfate at a concentration of 20uM in membrane vesicle from MRP3-expressing Sf9 cells
[8] = molecular target: Multidrug resistance associated protein (Homo sapiens) (UniProt Q96QA9); test: TP_TRANSPORTER: inhibition of Etoposide glucuronide uptake (Etoposide glucuronide: 0.094 uM, GLC-S: 20.0 uM) in membrane vesicles from MRP3-expressing Sf9 cells; conditions: Membrane vesicle
[9] = molecular target: Multidrug resistance associated protein (Homo sapiens) (UniProt Q96QA9); test: TP_TRANSPORTER: inhibition of Etoposide glucuronide uptake (Etoposide glucuronide: 0.094 uM, GC: 500.0 uM) in membrane vesicles from MRP3-expressing Sf9 cells; conditions: Membrane vesicle
[10] = molecular target: Multidrug resistance associated protein (Homo sapiens) (UniProt Q96QA9); test: TP_TRANSPORTER: inhibition of Etoposide glucuronide uptake (Etoposide glucuronide: 0.094 uM, GC: 500 uM) by Glycocholate at a concentration of 500uM in membrane vesicle from MRP3-expressing Sf9 cells
[11] = molecular target: Multidrug resistance associated protein (Homo sapiens) (UniProt Q96QA9); test: TP_TRANSPORTER: inhibition of Etoposide glucuronide uptake (Etoposide glucuronide: 0.094 uM, TLC-S: 50.0 uM) in membrane vesicles from MRP3-expressing Sf9 cells; conditions: Membrane vesicle
[12] = molecular target: Multidrug resistance associated protein (Homo sapiens) (UniProt Q96QA9); test: TP_TRANSPORTER: inhibition of Etoposide glucuronide uptake (Etoposide glucuronide: 0.094 uM, TLCAS: 50 uM) by Taurolithocholate-3-sulfate at a concentration of 50uM in membrane vesicle from MRP3-expressing Sf9 cells
[13] = molecular target: Multidrug resistance associated protein (Homo sapiens) (UniProt Q96QA9); test: TP_TRANSPORTER: inhibition of Etoposide glucuronide uptake (Etoposide glucuronide: 0.094 uM, TDCA: 500.0 uM) in membrane vesicles from MRP3-expressing Sf9 cells; conditions: Membrane vesicle
[14] = molecular target: Multidrug resistance associated protein (Homo sapiens) (UniProt Q96QA9); test: TP_TRANSPORTER: inhibition of Etoposide glucuronide uptake (Etoposide glucuronide: 0.094 uM, TDCA: 500 uM) by Taurodeoxycholate at a concentration of 500uM in membrane vesicle from MRP3-expressing Sf9 cells

Sequence of Multidrug resistance associated protein (Homo sapiens) (Q96QA9 as listed by the source): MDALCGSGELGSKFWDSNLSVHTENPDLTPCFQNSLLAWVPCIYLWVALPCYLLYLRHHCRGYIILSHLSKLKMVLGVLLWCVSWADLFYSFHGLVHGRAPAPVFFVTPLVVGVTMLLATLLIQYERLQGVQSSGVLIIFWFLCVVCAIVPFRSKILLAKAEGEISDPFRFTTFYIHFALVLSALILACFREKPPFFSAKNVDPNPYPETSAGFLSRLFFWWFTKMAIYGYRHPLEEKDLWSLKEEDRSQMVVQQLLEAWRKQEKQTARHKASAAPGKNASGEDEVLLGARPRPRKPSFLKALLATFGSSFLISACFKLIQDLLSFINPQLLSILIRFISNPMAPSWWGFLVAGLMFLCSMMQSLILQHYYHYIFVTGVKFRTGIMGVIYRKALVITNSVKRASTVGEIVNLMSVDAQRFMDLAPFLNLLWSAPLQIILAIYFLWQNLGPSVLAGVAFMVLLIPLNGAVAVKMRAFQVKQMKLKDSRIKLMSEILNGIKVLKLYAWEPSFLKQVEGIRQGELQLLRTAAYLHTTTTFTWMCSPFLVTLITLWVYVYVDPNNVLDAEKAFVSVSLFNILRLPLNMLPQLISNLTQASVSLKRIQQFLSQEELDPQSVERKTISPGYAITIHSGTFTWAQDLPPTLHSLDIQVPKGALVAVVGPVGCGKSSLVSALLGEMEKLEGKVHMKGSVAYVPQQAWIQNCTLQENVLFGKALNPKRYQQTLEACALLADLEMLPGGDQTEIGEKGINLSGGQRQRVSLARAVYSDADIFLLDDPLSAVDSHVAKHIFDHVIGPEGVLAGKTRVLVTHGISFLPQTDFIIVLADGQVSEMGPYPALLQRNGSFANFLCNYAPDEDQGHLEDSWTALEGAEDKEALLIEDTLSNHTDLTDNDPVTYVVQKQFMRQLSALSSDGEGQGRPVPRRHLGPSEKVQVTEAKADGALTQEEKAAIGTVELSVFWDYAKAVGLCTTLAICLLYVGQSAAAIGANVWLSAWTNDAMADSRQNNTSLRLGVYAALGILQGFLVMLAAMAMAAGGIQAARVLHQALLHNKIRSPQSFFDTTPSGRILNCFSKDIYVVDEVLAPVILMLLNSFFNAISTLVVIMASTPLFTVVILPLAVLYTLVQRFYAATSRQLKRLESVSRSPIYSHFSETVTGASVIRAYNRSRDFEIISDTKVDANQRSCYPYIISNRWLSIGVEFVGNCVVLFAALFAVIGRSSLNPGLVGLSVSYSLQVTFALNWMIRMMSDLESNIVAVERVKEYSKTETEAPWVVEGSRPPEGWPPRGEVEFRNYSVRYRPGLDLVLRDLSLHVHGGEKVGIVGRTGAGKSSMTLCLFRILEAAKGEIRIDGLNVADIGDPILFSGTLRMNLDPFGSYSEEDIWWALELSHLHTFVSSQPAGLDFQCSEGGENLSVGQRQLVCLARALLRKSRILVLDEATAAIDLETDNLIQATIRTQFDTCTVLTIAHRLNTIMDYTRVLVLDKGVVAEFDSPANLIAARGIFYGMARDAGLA

SMILES: CN(C)C(=O)CCSC(SCCC(=O)O)c1cccc(/C=C/c2ccc3ccc(Cl)cc3n2)c1 (centres undefined)
Activity [1]: 40%
Activity [2]: 40%

SMILES: C[C@H](CCC(=O)O)[C@H]1CC[C@H]2[C@@H]3CC[C@@H]4C[C@H](OS(=O)(=O)O)CC[C@]4(C)[C@H]3CC[C@]12C
Activity [3]: 24%
Activity [4]: 24%

SMILES: C[C@H](CCC(=O)NCC(=O)O)[C@H]1CC[C@H]2[C@@H]3CC[C@@H]4C[C@H](OS(=O)(=O)O)CC[C@]4(C)[C@H]3CC[C@]12C
Activity [7]: 29%
Activity [8]: 29%

SMILES: C[C@H](CCC(=O)NCCS(=O)(=O)O)C1CC[C@H]2[C@@H]3CC[C@@H]4C[C@H](OS(=O)(=O)O)CC[C@]4(C)[C@H]3CC[C@]12C (some centres undefined)
Activity [11]: 8%
Activity [12]: 8%

Further lines, results first:

Activity [5]: 6%
Activity [6]: 6%
SMILES: C[C@H](CCC(=O)NCCS(=O)(=O)O)[C@H]1CC[C@H]2[C@@H]3[C@H](O)C[C@@H]4C[C@H](O)CC[C@]4(C)[C@H]3CC[C@]12C

Activity [9]: 30%
Activity [10]: 30%
SMILES: C[C@H](CCC(=O)NCC(=O)O)[C@H]1CC[C@H]2[C@@H]3[C@H](O)C[C@@H]4C[C@H](O)CC[C@]4(C)[C@H]3C[C@H](O)[C@]12C

Activity [13]: 9%
Activity [14]: 9%
SMILES: C[C@H](CCC(=O)NCCS(=O)(=O)O)[C@H]1CC[C@H]2[C@@H]3CC[C@@H]4C[C@H](O)CC[C@]4(C)[C@H]3C[C@H](O)[C@]12C
